Experimental data: patent publication US20110190503A1, “Thiazolopyridin-2-yloxy-phenyl and thiazolopyrazin-2-yloxy-phenyl amines as modulators of leukotriene A4 hydrolase” (Janssen Pharmaceutical NV, priority 2008, published 2011)
Read-outs that look alike come from different tables or passages of the source.

Legend:
[1] = system: ex vivo stimulated LTB4 production; experiment: Murine arachidonic acid-induced inflammation model: ex vivo stimulated LTB4 production (% Inh. LTB4); details: Mus musculus; female Balb/c mice, 30 mg/kg oral gavage; blood taken 3 h after arachidonic acid, ex vivo A23187 stimulation; number of determinations in parentheses
Summary of the method: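 Female Balb/c mice got 30 mg/kg orally in 20% cyclodextran/H2O. Heparinized blood in RPMI-1640 was stimulated with A23187 ([…]) for 30 min at 37 °C. LTB4 was measured by ELISA as % inhibition versus vehicle-dosed mice.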

[2] = biological target: T1, recombinant human LTA4 hydrolase (rhLTA4H) (Homo sapiens, UniProt P09960); experiment: Recombinant human LTA4 hydrolase assay for LTA4 hydrolase inhibitor activity; assay type: biochemical
T1 construct: made in house; host or cells: Spodoptera frugiperda (Sf-9) cells, recombinant baculovirus (pFastBac1)
T1 sequence (P09960 1-611): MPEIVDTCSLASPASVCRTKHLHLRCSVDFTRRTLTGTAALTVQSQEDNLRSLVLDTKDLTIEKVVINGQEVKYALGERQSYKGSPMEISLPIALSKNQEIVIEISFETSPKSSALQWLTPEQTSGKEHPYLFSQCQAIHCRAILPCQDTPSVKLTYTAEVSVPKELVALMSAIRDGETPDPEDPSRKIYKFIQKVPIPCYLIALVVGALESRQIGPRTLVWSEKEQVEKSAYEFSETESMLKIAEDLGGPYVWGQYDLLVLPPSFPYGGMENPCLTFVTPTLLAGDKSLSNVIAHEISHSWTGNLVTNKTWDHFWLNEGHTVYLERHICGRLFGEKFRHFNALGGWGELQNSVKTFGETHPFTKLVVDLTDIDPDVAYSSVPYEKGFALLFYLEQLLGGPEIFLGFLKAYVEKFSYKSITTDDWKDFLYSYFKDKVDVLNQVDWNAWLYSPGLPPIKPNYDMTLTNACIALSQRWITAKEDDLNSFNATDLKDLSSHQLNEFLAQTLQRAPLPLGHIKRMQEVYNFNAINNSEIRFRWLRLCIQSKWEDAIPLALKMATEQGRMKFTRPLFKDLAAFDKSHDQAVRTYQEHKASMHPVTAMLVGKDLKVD
Summary of the method: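 LTB4 formed from LTA4 substrate (free acid from the methyl ester) was quantified by enzyme immunoassay after a 30 min rt reaction. Enzyme was 10 ng Sf-9-expressed human LTA4 hydrolase, pre-incubated 10 min with compound.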

[3] = system: LTB4 production by calcium ionophore-stimulated human blood; experiment: LTB4 production by calcium ionophore-stimulated human blood for LTA4H inhibitor activity; assay type: cell-based
Description: Assay 3: LTB4 Production by Calcium Ionophore-Stimulated Human Blood for LTA4H Inhibitor Activity
Human blood was collected from healthy donors in heparin-containing syringes. The blood was diluted 1:1 with RPMI-1640 medium, and 200-μL aliquots of the diluted blood were added to wells of a 96-well microtiter plate. LTA4H inhibitor test compounds were prepared at different concentrations in RPMI-1640 medium containing 1% DMSO, and 20 μL of each test solution was added to a well containing diluted whole blood (final DMSO concentration of 0.1%). After the microtiter plate contents were incubated for 15 min at 37° C. in a humidified incubator, calcium ionophore A23187 (Sigma Chemical Co., St. Louis, Mo.) was added to each sample well (final concentration=7 μg/mL). The incubation was continued under the same conditions for an additional 30 min to allow LTB4 formation. The reaction was terminated by centrifugation (833×g, 10 min at 4° C.), and supernatants were analyzed for LTB4 by a commercially available enzyme-linked immunoassay (Cayman Chemical Co.) according to the manufacturer's instructions. Positive controls, under essentially identical conditions but without addition of an inhibitor compound, and negative unstimulated controls, containing all assay components except calcium ionophore, were routinely run in each experiment. IC50 values for compounds tested in this assay were determined by nonlinear regression of the activity data at different compound concentrations using Graphpad Prism 4.0, one site binding competition, and are presented in Table 3. The number of determinations made is indicated in parentheses following each value.

[4] = rhLTA4H, LTA4 substrate, LTB4 by immunoassay, single determination or average, read-out: IC50
[5] = human blood diluted 1:1, calcium ionophore A23187, LTB4 by immunoassay, n in parentheses, read-out: IC50

| SMILES | IC50 [2, 4] [nM] | IC50 [3, 5] [nM] | inhibition at 30 mg/kg [1] [%] | IC50 [2] [nM] | IC50 ([3]; Homo sapiens) [nM] |
| --- | --- | --- | --- | --- | --- |
| CC(=O)N1C[C@H]2CC[C@@H](C1)N2CCc1ccc(Oc2nc3ncccc3s2)cc1 [Example 55, meso-2-(4-{2-[3-Acetyl-3,8-diazabicyclo[3.2.1]oct-8-yl]ethyl}phenoxy)[1,3]thiazolo[4,5-b]pyridine] | 4.8 | 99 | 83.7 | – | – |
| CC(=O)N1CC2CN(CCc3ccc(Oc4nc5ncccc5s4)cc3)CC2C1 (stereo not drawn) [Example 73, 2-{4-[2-(5-Acetylhexahydropyrrolo[3,4-c]pyrrol-2(1H)-yl)ethyl]phenoxy}[1,3]thiazolo[4,5-b]pyridine] | 12 | 227 | 85.7 | – | – |
| CC(=O)N1C[C@@H]2C[C@H]1CN2CCc1ccc(Oc2nc3ncccc3s2)cc1 [Example 75, 2-(4-{2-[(1S,4S)-5-Acetyl-2,5-diazabicyclo[2.2.1]hept-2-yl]ethyl}phenoxy)[1,3]thiazolo[4,5-b]pyridine] | 12 | 299 | 89.5 | – | – |
| O=C1CCCN1C1CCN(Cc2ccc(Oc3nc4ncccc4s3)cc2)CC1 [Example 83, 1-{1-[4-([1,3]Thiazolo[4,5-b]pyridin-2-yloxy)benzyl]piperidin-4-yl}pyrrolidin-2-one] | 6.3 | 134 | 81 | – | – |
| CC(=O)N[C@@H]1C[C@H]2CC[C@@H](C1)N2Cc1ccc(Oc2nc3ncccc3s2)cc1 [Example 109, meso-N-{(3-exo)-8-[4-([1,3]Thiazolo[4,5-b]pyridin-2-yloxy)benzyl]-8-azabicyclo[3.2.1]oct-3-yl}acetamide] | – | – | 84.8 | 0.97 | 87 |
| CC(=O)N[C@H]1C[C@H]2CC[C@@H](C1)N2Cc1ccc(Oc2nc3ncccc3s2)cc1 [Example 116, meso-N-{(3-endo)-8-[4-([1,3]Thiazolo[4,5-b]pyridin-2-yloxy)benzyl]-8-azabicyclo[3.2.1]oct-3-yl}acetamide] | – | – | 81 | 1 ± 0.51 | 19 |
| CC(=O)N1C[C@H]2C[C@@H]1CN2Cc1ccc(Oc2nc3ncccc3s2)cc1 [Example 265, 2-(4-{[(1R,4R)-5-Acetyl-2,5-diazabicyclo[2.2.1]hept-2-yl]methyl}phenoxy)[1,3]thiazolo[4,5-b]pyridine] | 11 | 72 | 84.4 | – | – |
| NC(=O)N1C[C@H]2C[C@@H]1CN2Cc1ccc(Oc2nc3ncccc3s2)cc1 [Example 266, (1R,4R)-5-[4-([1,3]Thiazolo[4,5-b]pyridin-2-yloxy)benzyl]-2,5-diazabicyclo[2.2.1]heptane-2-carboxamide] | 2 | 154 | 78.6 | – | – |
| CC(=O)N1C[C@H]2C[C@@H]1CN2CCOc1ccc(Oc2nc3ncccc3s2)cc1 [Example 267, 2-(4-{2-[(1R,4R)-5-Acetyl-2,5-diazabicyclo[2.2.1]hept-2-yl]ethoxy}phenoxy)[1,3]thiazolo[4,5-b]pyridine] | 3 | 57 | 83.4 | – | – |

The remaining molecules from weak to strong by IC50 [2, 4], led by results:

| IC50 [2, 4] [nM] | IC50 [3, 5] [nM] | SMILES | inhibition at 30 mg/kg [1] [%] | IC50 [2] [nM] | IC50 ([3]; Homo sapiens) [nM] |
| --- | --- | --- | --- | --- | --- |
| 38 ± 17 | 88 | CC(=O)N1C[C@@H]2C[C@H]1CN2Cc1ccc(Oc2nc3ncc(C)cc3s2)cc1 [Example 121, 2-(4-{[(1S,4S)-5-Acetyl-2,5-diazabicyclo[2.2.1]hept-2-yl]methyl}phenoxy)-6-methyl[1,3]thiazolo[4,5-b]pyridine] | 83 | – | – |
| 29 | 53 | NC(=O)C1CCN(CCOc2ccc(Oc3nc4ncccc4s3)cc2)CC1 [Example 31, 1-{2-[4-([1,3]Thiazolo[4,5-b]pyridin-2-yloxy)phenoxy]ethyl}piperidine-4-carboxamide] | 79.8 | – | – |
| 8.9 | 8 | O=C1CCCN1C1CCN(CCOc2ccc(Oc3nc4ncccc4s3)cc2)CC1 [Example 32, 1-(1-{2-[4-([1,3]Thiazolo[4,5-b]pyridin-2-yloxy)phenoxy]ethyl}piperidin-4-yl)pyrrolidin-2-one] | 89 | – | – |
| 7.5 ± 4.6 | 79 | CC(=O)N1C[C@@H]2C[C@H]1CN2CCOc1ccc(Oc2nc3ncccc3s2)cc1 [Example 14, 2-(4-{2-[(1S,4S)-5-Acetyl-2,5-diazabicyclo[2.2.1]hept-2-yl]ethoxy}phenoxy)[1,3]thiazolo[4,5-b]pyridine] | 84 | – | – |
| 3.9 | 256 | NC(=O)N1C[C@@H]2C[C@H]1CN2CCc1ccc(Oc2nc3ncccc3s2)cc1 [Example 45, (1S,4S)-5-{2-[4-([1,3]Thiazolo[4,5-b]pyridin-2-yloxy)phenyl]ethyl}-2,5-diazabicyclo[2.2.1]heptane-2-carboxamide] | 86.8 | – | – |
| 3.5 | 141 | NC(=O)N1C[C@@H]2C[C@H]1CN2Cc1ccc(Oc2nc3ncccc3s2)cc1 [Example 106, (1S,4S)-5-[4-([1,3]Thiazolo[4,5-b]pyridin-2-yloxy)benzyl]-2,5-diazabicyclo[2.2.1]heptane-2-carboxamide] | 90.5 | – | – |
